Among the data in US12145944B2, “Imidazopyrimidines as EED inhibitors and the use thereof” (THE REGENTS OF THE UNIVERSITY OF MICHIGAN, priority 2019, dated 2024) are IC50 values, retold here.

For one assay, the system named is KARPAS422 human B cell lymphoma cell. Description: Cell proliferation, KARPAS422, 7 day treatment (WST-8). The assay is classed as cell-based. The following applies: Homo sapiens, KARPAS-422, 168 h, anti-proliferative IC50, Karpas 422 cell line, 7 day treatment; read-out: Karpas Cell line. As to the method: “N/A” stands for “not assessed”.
Analysis of Cell Proliferation:
To assess the effect of PRC2 inhibition on cell growth, cells were seeded in 96-well cell culture plates at a density of 2 000-3 000 cells/well in 200 µL of culture medium, and treated with serially diluted compounds for 7 days at 37° C. in an atmosphere of 5% CO2. Cell growth was evaluated by a […] WST-8 assay (Dojindo Molecular Technologies) using a Tecan Infinite M1000 multimode microplate reader (Tecan, Morrisville, NC). The WST-8 reagent was added to the plate, incubated for 1-4 h, and read at 450 nm. The readings were normalized to the DMSO-treated cells, and the IC50 was calculated by nonlinear regression analysis using GraphPad Prism 6 software
A general note: Formazan colour is commonly taken as a measure of viable cells.
On to `c1ccc(-c2cnc(NCc3ccco3)n3cncc23)cc1` [Cpd. No. 126, N-(furan-2-ylmethyl)-8-phenylimidazo[1,5-c]pyrimidin-5-amine], for which the IC50 is more than 100 nM. `CCOC(=O)c1ncn2c(NCc3ccco3)ncc(-c3ccccc3)c12` [Cpd. No. 127, ethyl 5-((furan-2-ylmethyl)amino)-8-phenylimidazo[1,5-c]pyrimidine-1-carboxylate]: the IC50 was more than 100 nM. The same measure, in the same setting: for `CNC(=O)c1ncn2c(NCc3ccco3)ncc(-c3ccccc3)c12` [Cpd. No. 128, 5-((furan-2-ylmethyl)amino)-N-methyl-8-phenylimidazo[1,5-c]pyrimidine-1-carboxamide] the value was more than 100 nM; for `Fc1ccc2c(c1CNc1ncc(-c3ccccc3)c3c(C(F)(F)F)ncn13)CCO2` [Cpd. No. 143, N-((5-fluoro-2,3-dihydrobenzofuran-4-yl)methyl)-8-phenyl-1-(trifluoromethyl)imidazo[1,5-c]pyrimidin-5-amine], more than 100 nM. Take `CP(C)(=O)c1ncn2c(NCc3c(F)ccc4c3CCO4)ncc(-c3ccccc3)c12` [Cpd. No. 144, (5-(((5-fluoro-2,3-dihydrobenzofuran-4-yl)methyl)amino)-8-phenylimidazo[1,5-c]pyrimidin-1-yl)dimethylphosphine oxide]: the IC50 is more than 10 nM. Turning to `O=C1OCc2cc(OC(F)(F)F)ccc2-c2cnc(NCc3c(F)ccc4c3CCO4)n3cnc1c23` [compound 31, 12-(((5-fluoro-2,3-dihydrobenzofuran-4-yl)methyl)amino)-7-(trifluoromethoxy)-3H,5H-4-oxa-2,11,12a-triazabenzo[4,5]cycloocta[1,2,3-cd]inden-3-one], the IC50 was found to be 3.68 nM. Same read-out and setting: for `O=C1c2ncn3c(NCc4c(F)ccc5c4CCO5)ncc(c23)-c2ccc(C(F)(F)F)nc2CN1CC1CCOCC1` [compound 46, 12-(((5-fluoro-2,3-dihydrobenzofuran-4-yl)methyl)amino)-4-((tetrahydro-2H-pyran-4-yl)methyl)-7-(trifluoromethyl)-4,5-dihydro-3H-2,4,6,11,12a-pentaazabenzo[4,5]cycloocta[1,2,3-cd]inden-3-one] the value was 0.57 nM; for `CC1(O)CC(CN2Cc3nc(C(F)(F)F)ccc3-c3cnc(NCc4c(F)ccc5c4CCO5)n4cnc(c34)C2=O)C1` (stereo not drawn) [compound 47, 12-(((5-fluoro-2,3-dihydrobenzofuran-4-yl)methyl)amino)-4-((3-hydroxy-3-methylcyclobutyl)methyl)-7-(trifluoromethyl)-4,5-dihydro-3H-2,4,6,11,12a-pentaazabenzo[4,5]cycloocta[1,2,3-cd]inden-3-one], 0.65 nM. On the same count and under the same terms, for `CC(C)(O)CN1Cc2cc(C(F)(F)F)ncc2-c2cnc(NCc3c(F)ccc4c3CCO4)n3cnc(c23)C1=O` [compound 48, 12-(((5-fluoro-2,3-dihydrobenzofuran-4-yl)methyl)amino)-4-(2-hydroxy-2-methylpropyl)-7-(trifluoromethyl)-4,5-dihydro-3H-2,4,8,11,12a-pentaazabenzo[4,5]cycloocta[1,2,3-cd]inden-3-one] the value was 0.74 nM; for `CC1(O)CC(CN2Cc3cc(C(F)(F)F)ncc3-c3cnc(NCc4c(F)ccc5c4CCO5)n4cnc(c34)C2=O)C1` (stereo not drawn) [compound 49, 12-(((5-fluoro-2,3-dihydrobenzofuran-4-yl)methyl)amino)-4-((3-hydroxy-3-methylcyclobutyl)methyl)-7-(trifluoromethyl)-4,5-dihydro-3H-2,4,8,11,12a-pentaazabenzo[4,5]cycloocta[1,2,3-cd]inden-3-one], 2.78 nM; for `Cc1ccc2c(n1)CN(CC1CC(C)(O)C1)C(=O)c1ncn3c(NCc4c(F)ccc5c4CCO5)ncc-2c13` (stereo not drawn) [compound 50, 12-(((5-fluoro-2,3-dihydrobenzofuran-4-yl)methyl)amino)-4-((3-hydroxy-3-methylcyclobutyl)methyl)-7-methyl-4,5-dihydro-3H-2,4,6,11,12a-pentaazabenzo[4,5]cycloocta[1,2,3-cd]inden-3-one], 0.71 nM. The same measure, in the same setting: for `O=C1c2ncn3c(NCc4c(F)ccc5c4CCO5)ncc(c23)-c2ccc(C(F)(F)F)nc2CN1C1CCOCC1` [compound 51, 12-(((5-fluoro-2,3-dihydrobenzofuran-4-yl)methyl)amino)-4-(tetrahydro-2H-pyran-4-yl)-7-(trifluoromethyl)-4,5-dihydro-3H-2,4,6,11,12a-pentaazabenzo[4,5]cycloocta[1,2,3-cd]inden-3-one] the value was 2.08 nM. Consider `O=C1c2ncn3c(NCc4c(F)ccc5c4CCO5)ncc(c23)-c2ccc(C(F)(F)F)nc2CN1CC1CCOC1` (stereo not drawn) [compound 52, 12-(((5-fluoro-2,3-dihydrobenzofuran-4-yl)methyl)amino)-4-((tetrahydrofuran-3-yl)methyl)-7-(trifluoromethyl)-4,5-dihydro-3H-2,4,6,11,12a-pentaazabenzo[4,5]cycloocta[1,2,3-cd]inden-3-one], for which the IC50 came to 0.54 nM. Same read-out and setting: for `Cn1ncc2c1CNC(=O)c1ncn3c(NCc4c(F)ccc5c4CCO5)ncc-2c13` [compound 53, 11-(((5-fluoro-2,3-dihydrobenzofuran-4-yl)methyl)amino)-6-methyl-5,6-dihydro-2,4,6,7,10,11a-hexaazacyclopenta[4,5]cycloocta[1,2,3-cd]inden-3(4H)-one] the value was more than 100 nM; for `Cn1cc2c(n1)COC(=O)c1ncn3c(NCc4c(F)ccc5c4CCO5)ncc-2c13` [compound 54, 11-(((5-fluoro-2,3-dihydrobenzofuran-4-yl)methyl)amino)-7-methyl-5,7-dihydro-3H-4-oxa-2,6,7,10,11a-pentaazacyclopenta[4,5]cycloocta[1,2,3-cd]inden-3-one], more than 100 nM; for `O=C1c2ncn3c(NCc4c(F)ccc5c4CCO5)ncc(c23)-c2ccc(C(F)(F)F)nc2CN1CC1CC1` [compound 55, 4-(cyclopropylmethyl)-12-(((5-fluoro-2,3-dihydrobenzofuran-4-yl)methyl)amino)-7-(trifluoromethyl)-4,5-dihydro-3H-2,4,6,11,12a-pentaazabenzo[4,5]cycloocta[1,2,3-cd]inden-3-one], 8.08 nM. Still for that read-out and setting: for `Cc1nn(C)c2c1-c1cnc(NCc3c(F)ccc4c3CCO4)n3cnc(c13)C(=O)N(C1CC1)C2` [compound 56, 4-cyclopropyl-11-(((5-fluoro-2,3-dihydrobenzofuran-4-yl)methyl)amino)-6,8-dimethyl-5,6-dihydro-2,4,6,7,10,11a-hexaazacyclopenta[4,5]cycloocta[1,2,3-cd]inden-3(4H)-one] the value was 21 nM; for `COCCN1Cc2nc(C(F)(F)F)ccc2-c2cnc(NCc3c(F)ccc4c3CCO4)n3cnc(c23)C1=O` [compound 57, 12-(((5-fluoro-2,3-dihydrobenzofuran-4-yl)methyl)amino)-4-(2-methoxyethyl)-7-(trifluoromethyl)-4,5-dihydro-3H-2,4,6,11,12a-pentaazabenzo[4,5]cycloocta[1,2,3-cd]inden-3-one], 2.63 nM; for `CC(C)N1Cc2nc(C(F)(F)F)ccc2-c2cnc(NCc3c(F)ccc4c3CCO4)n3cnc(c23)C1=O` [compound 59, 12-(((5-fluoro-2,3-dihydrobenzofuran-4-yl)methyl)amino)-4-isopropyl-7-(trifluoromethyl)-4,5-dihydro-3H-2,4,6,11,12a-pentaazabenzo[4,5]cycloocta[1,2,3-cd]inden-3-one], 39.9 nM.

As for `O=C1c2ncn3c(NCc4c(F)ccc5c4CCO5)ncc(c23)-c2ccc(C(F)(F)F)cc2CN1C1CCOCC1` [compound 60, 12-(((5-fluoro-2,3-dihydrobenzofuran-4-yl)methyl)amino)-4-(tetrahydro-2H-pyran-4-yl)-7-(trifluoromethyl)-4,5-dihydro-3H-2,4,11,12a-tetraazabenzo[4,5]cycloocta[1,2,3-cd]inden-3-one], the IC50 stood at 1.18 nM. On the same count and under the same terms, for `O=C1c2ncn3c(NCc4c(F)ccc5c4CCO5)ncc(c23)-c2ccc(C(F)(F)F)cc2CN1CCF` [compound 61, 12-(((5-fluoro-2,3-dihydrobenzofuran-4-yl)methyl)amino)-4-(2-fluoroethyl)-7-(trifluoromethyl)-4,5-dihydro-3H-2,4,11,12a-tetraazabenzo[4,5]cycloocta[1,2,3-cd]inden-3-one] the value was 1.63 nM; for `CC(C)(F)CN1Cc2cc(C(F)(F)F)ccc2-c2cnc(NCc3c(F)ccc4c3CCO4)n3cnc(c23)C1=O` [compound 62, 12-(((5-fluoro-2,3-dihydrobenzofuran-4-yl)methyl)amino)-4-(2-fluoro-2-methylpropyl)-7-(trifluoromethyl)-4,5-dihydro-3H-2,4,11,12a-tetraazabenzo[4,5]cycloocta[1,2,3-cd]inden-3-one], 4.86 nM; for `CC(F)(F)CN1Cc2cc(C(F)(F)F)ccc2-c2cnc(NCc3c(F)ccc4c3CCO4)n3cnc(c23)C1=O` [compound 63, 4-(2,2-difluoropropyl)-12-(((5-fluoro-2,3-dihydrobenzofuran-4-yl)methyl)amino)-7-(trifluoromethyl)-4,5-dihydro-3H-2,4,11,12a-tetraazabenzo[4,5]cycloocta[1,2,3-cd]inden-3-one], 3.69 nM.

The same assay, now with this note: anti-proliferative IC50, Karpas 422 cell line, 7 day treatment; read-out: Karpas Cell line.
As for `O=C1c2ncn3c(NCc4c(F)ccc5c4CCO5)ncc(c23)-c2ccc(F)cc2CN1C1CC1` [compound 64, 4-cyclopropyl-7-fluoro-12-(((5-fluoro-2,3-dihydrobenzofuran-4-yl)methyl)amino)-4,5-dihydro-3H-2,4,11,12a-tetraazabenzo[4,5]cycloocta[1,2,3-cd]inden-3-one], the IC50 turned out to be 2.44 nM.
